According to the METLIN SMRT retention time set (Domingo-Almenara et al. 2019):

experiment: gradient 5% acetonitrile 3 min, to 50% in 2 min, to 85% in 15 min, held 3 min, 100 µL/min; details: column: Zorbax Extend-C18 2.1 x 50 mm; eluents: water / acetonitrile, 0.1% formic acid
Outline: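 Pure standards were run in mixtures of ~100 molecules by HPLC coupled to a quadrupole time-of-flight mass spectrometer. The column was a Zorbax Extend-C18 (2.1 × 50 mm, 1.8 μm) at 100 μL/min, with water and acetonitrile each containing 0.1% formic acid, in positive and negative ionization mode. Dead and dwell volumes were 40 μL and 900 μL. Retention time was taken from computationally picked adduct peaks, each manually inspected, with data collected over 3 months.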

| SMILES | RP-LC retention time |
| --- | --- |
| O=C(Cn1cnc2nc(N3CCCC(C(=O)NC4CC4)C3)sc2c1=O)NCc1ccccc1 (configuration not stated) | 646 s |
| CNC(=O)c1cn2ccnc(-c3ccc(OC)cc3)c2n1 | 711 s |
| CC1CCCN(c2ccc(-c3noc(CN4CCSCC4)n3)cn2)C1 (configuration not stated) | 856 s |
| Cn1c(CNC(=O)CN2CCN(Cc3ccc(F)cc3)C2=O)nc2ccccc21 | 628 s |
| Cc1ccc(S(=O)(=O)N(c2ccc(Br)cc2)C2C=CS(=O)(=O)C2)cc1 (configuration not stated) | 887 s |
| COc1ccc(NC(=O)N2[C@H]3CC[C@@H]2c2cncnc2C3)cc1F | 649 s |
| O=C(CSc1ccc(-c2cccc([N+](=O)[O-])c2)nn1)c1ccc(F)cc1 | 944 s |
| CCc1ccc(-c2nc(-c3ccc4c(c3)N(CC)C(=O)CO4)no2)cc1 | 1320 s |
| O=C(CN1C(=O)C2CCCCN2c2ccc(S(=O)(=O)N3CCCCC3)cc21)NC1CCCC1 (configuration not stated) | 980 s |
| Cc1ccc(S(=O)(=O)N2CCc3c(c(-c4nnc(-c5ccc(F)cc5)o4)nn3C)C2)cc1Cl | 1040 s |
| CCc1cccc(C)c1Nc1c(-c2ccccc2)nc2nc(C)cc(C)n12 | 816 s |
| CCN(Cc1ccccc1)C(=O)CN1C(=O)N(c2cc(C)cc(C)c2)C2CS(=O)(=O)CC21 (configuration not stated) | 893 s |
| COc1ccc(Cl)cc1NS(=O)(=O)c1cn(C(C)C)c2ncccc12 | 972 s |
| CC(C)(C)c1csc(-c2csc(S(=O)(=O)NCC3CCCCC3)c2)n1 | 1410 s |
| Cc1noc(/C=C/c2ccc(S(=O)(=O)NCC3CCCO3)s2)c1NC(=O)C1CC1 (configuration not stated) | 677 s |
| CCOc1ccc(Cc2nc(-c3ccc4c(c3)oc(=O)n4C)no2)cc1OCC | 976 s |
| COc1nn(C)cc1C(=O)Nc1ccccc1SC | 776 s |
| O=C1CC(c2nc3ccccc3n2CCN2CCOCC2)CN1Cc1ccc(F)cc1 (configuration not stated) | 612 s |
| COc1ccccc1NC(=O)Nc1c(-c2ccc(F)cc2)nc2ccccn12 | 692 s |
| N#Cc1cccc(C(=O)NC2CCN(C(=O)C3CC3)C2)c1 (configuration not stated) | 651 s |
| CCc1ccc(CNC(=O)C2CCCN(C(=O)c3[nH]c(C)c(C(=O)OC)c3C)C2)cc1 (configuration not stated) | 845 s |
| N#CC1=CN(c2cccc(C(F)(F)F)c2)c2ccccc2S1(=O)=O | 930 s |
| CCC(=O)NCc1nc2c(n1CC)CN(C(=O)c1cccc(C(F)(F)F)c1)CC2 | 603 s |

| SMILES | RP-LC retention time |
| --- | --- |
| COc1ccc(C2Cn3cnc(C(=O)N4CCC(C(=O)NC5CC5)CC4)c3CO2)cc1 (configuration not stated) | 648 s |
| O=C(NCCc1ccccc1)C(=O)NCc1cccnc1 | 567 s |
| O=C(NCc1ccccn1)c1c(-c2ccccc2)nnc2ccccc12 | 609 s |
| Cc1nc(C(C)C)ncc1C(=O)Nc1ccc(Br)cc1F | 907 s |
| O=C(NCC1CCCO1)c1nnc(-c2ccc(S(=O)(=O)N3CCCC3)cc2)o1 (configuration not stated) | 729 s |
| COc1ccc(C)cc1N(C)C(=O)Cn1ccc2c(=O)n(C)c(=O)n(C)c21 | 714 s |
| COCCC(=O)N(C)Cc1cccnc1Oc1ccccc1 | 1060 s |
| CCn1cnc(S(=O)(=O)N2CCC(C(=O)NCc3ccc(Br)cc3)CC2)c1 | 747 s |
| COc1ccc(Cl)cc1N1CC(c2nc(-c3ccccc3F)no2)CC1=O (configuration not stated) | 943 s |
| COc1ccc(Cn2nnc(C(=O)NCC3CCCO3)c2-n2cccc2)cc1 (configuration not stated) | 832 s |
| CCCN1C(=O)COc2ccc(-c3noc(Cc4c[nH]c5ccccc45)n3)cc21 | 1040 s |
| O=C(Nc1ccc2c(c1)OCCO2)N1CCCC1c1nc(CCOCC2CCCC2)no1 (configuration not stated) | 896 s |
| CCOC(=O)CNC(=O)CSc1nnc(NC(=O)c2nc3ccccc3s2)s1 | 736 s |
| COc1ccc(-c2n[nH]c3c2C(c2ccc(O)c(OC)c2)NC3=O)cc1 (configuration not stated) | 639 s |
| O=C(C1COc2ccccc2O1)N1CCCC(COCc2ccccc2)C1 (configuration not stated) | 1030 s |
| Cn1cc(-c2ccncc2)cc1C(=O)NCc1cccc(F)c1 | 630 s |
| CCOc1ccc(C2NC(=O)NC(C)=C2C(=O)OC2CCCC2)cc1OC (configuration not stated) | 770 s |
| COc1cccc(-c2noc(CCn3nc(-c4ccc5c(c4)OCO5)ccc3=O)n2)c1OC | 852 s |
| CC1CCN(c2ccc(-c3noc(CN4CCN(CC(=O)NC(C)C)CC4)n3)cn2)CC1 | 646 s |
| O=C(O)c1cccc2c1CCN2C(=O)c1ccc(F)cc1 | 761 s |
| COc1ccc(NC(=O)c2cn3c(n2)CCCC3)cc1Cl | 609 s |
| CC(=O)c1ccc(NC(=O)c2cnc(-c3ccc(F)cc3)nc2-c2ccncc2)cc1 | 837 s |
| Cc1cccc(CNC(=O)CN2C(=O)C3CCCCN3c3ccc(S(=O)(=O)N(C)C)cc32)c1 (configuration not stated) | 932 s |

| SMILES | RP-LC retention time |
| --- | --- |
| Cc1nnc2cc(N3CCN(S(=O)(=O)c4ccc(CC(C)C)cc4)CC3)cnn12 | 695 s |
| COc1ccccc1C(=O)Nc1cnc(-c2cccc(Cl)c2)nc1 | 1180 s |
| O=C1CC(c2noc(Cc3ccc(F)cc3)n2)CN1c1ccc(F)cc1 (configuration not stated) | 933 s |
| O=C(NC1CCCCC1)c1ncoc1-c1ccccc1C(=O)N1CCCC1 | 798 s |
| O=C(c1ccc(CN2C(=O)CSc3ncccc32)cc1)N1CCN(c2ccccn2)CC1 | 710 s |
| Cc1csc(-c2cc(S(=O)(=O)N3CCCCC3)cn2CC(=O)N2CCCC2)n1 | 890 s |
| O=C(Nc1cnc(N2CCOCC2)nc1)c1ccccc1Br | 725 s |
| COc1ccc(CNC(=O)Cn2c(=O)c3c(C(=O)N4CCCCC4)cc(C)nc3n(C)c2=O)cc1 | 761 s |
| O=C(Nc1nc(-c2ccccc2)cs1)C1Cc2ccccc2CN1S(=O)(=O)c1cccs1 (configuration not stated) | 1160 s |
| O=C(C1CCN(c2nnc3ccccn23)CC1)N1CCN(c2ccccn2)CC1 | 543 s |
| Fc1ccccc1CNc1cc(-n2cccn2)ncn1 | 838 s |
| CCOC(=O)C1CCc2sc(NC(=O)Cc3sc(C)nc3C)nc21 (configuration not stated) | 639 s |
| CCC(=O)N1CCCc2cc(NC(=O)c3ccco3)ccc21 | 725 s |
| O=C(NCCN1CCCC1)c1ccc2nc(-c3ccccc3)cn2c1 | 552 s |
| COCCN1CC2(CCN(S(=O)(=O)c3ccc(C)cc3)CC2)C1c1ccccc1 (configuration not stated) | 693 s |
| O=C(c1ccc2c(c1)OCO2)N(CCc1cscn1)Cc1cccnc1 | 602 s |
| CN(C)c1ccc(CNC(=O)C2CCN(c3cnc(N4CCCC4)nc3)CC2)cc1 | 557 s |
| CCOC(=O)C1=C(CN(C)c2ccccc2)NC(=O)NC1c1ccc(C)cc1 (configuration not stated) | 1020 s |
| Cc1ccc(NC(=O)C2CC(=O)N(CCc3c[nH]c4ccc(C)cc34)C2)c(C)c1 (configuration not stated) | 842 s |
| COc1cc(NS(=O)(=O)c2ccc(N)cc2)nc(OC)n1 | 680 s |
| COc1ccc(-c2nc(CNC(=O)Cn3cnc(-c4cccs4)cc3=O)cs2)cc1 | 746 s |
